Marks after values point to notes of the source that are not given here.
How the values were obtained:
[1] = test system: Wrinkles Produced in Hairless Mice by UVB-Irradiation; experiment: Effect on wrinkles produced in hairless mice by UVB irradiation (skin replica, visual Wrinkle Index); assay type: in vivo
From the text: (§1) Hairless mice (HRS/J strain, Jackson Labs, 5-7 weeks old at the start of the experiments) were irradiated three times per week with a bank of 8 Westinghouse® Sunlamps (FS40) placed about 20cm above the animals. The radiation dose was controlled by an International Light Model IL844A Phototherapy Exposure Control and a detector. The UVB dosing schedule was such that individual doses, seldom exceeding 0.06J/cm², caused minimal erythema but no burning or scarring. There was significant elastosis, detected by histology, after a total dose of about 3.5J/cm²: this was confirmed in measurements of elastin in whole skin by means of a radioimmunoassay for desmosine. Desmosine is found in elastin hydrolysates and is derived from crosslinks in the elastin molecule; it is a reliable index of total elastin. Typically, desmosine increased by about 2-3 fold after 3.5J/cm² of UVB irradiation. To effect repair of the dermal damage, the UVB irradiation was discontinued and animals were treated three times per week with various concentrations of the compounds of formula I dissolved in acetone. Solutions were made up freshly every week at concentrations such that the dose was delivered in 100µl acetone and applied topically to an area of about 10 cm² on the back of the animal with a plastic pipette; a control group treated with acetone alone was also included.
One skin replica for each animal was taken of these areas using a liquid dental impression material (SILFLO® - Flexico Developments Ltd., England). Wrinkles appeared in these impressions as ridges which cast a shadow when illuminated with low angle light. A characteristic of the wrinkling pattern was the occurrence of the ridges in a regularly-spaced array about 2-mm apart. The extent of wrinkling was visually assessed using this line pattern and assigned a value (Wrinkle Index) of zero to 4 with zero representing complete effacement of wrinkling and 4 representing the maximum degree of wrinkling. It was observed that compounds of formula I caused a dose-dependent effacement of the wrinkles with ED₅₀ values in the microgram range.

[2] = test system: UVB-Induced Dermal Damage in the Hairless Mouse; experiment: Repair of UVB-induced dermal damage in the hairless mouse (repair zone by histology, Luna's stain, image analyzer); assay type: in vivo, Hairless mice (HRS/J strain); conditions: three times per week, 10 weeks, total area per twenty microscopic fields
From the text: as §1, with “included. After 10 weeks of treatment the animals were sacrificed, skin samples were taken and processed by standard methods. A six µm [micron] section from each animal was stained for elastin with Luna's stain and the degree of repair measured quantitatively. In this model, repair is defined by the appearance of a normalized dermis extending from the epidermis down to the layer of compressed elastin. The extent of repair was reflected by the width of this zone. In these studies, the area of the zone on a standard length of histological section was measured by an image analyzer and the results are given as total area in mm² per twenty microscopic fields. Data was analyzed by Student's t-test. The results are given in Table I. In Table I, and Table II each group dosed at a particular concentration of compound of formula I contained six to ten animals.” for “included.”

## C/C(=C\c1ccc(SC(=O)N(C)C)cc1)c1ccc2c(c1)C(C)(C)CCC2(C)C [Compound A]
[1]; 0.1 µg topical, scale zero (complete effacement) to 4 (maximum wrinkling)
  Wrinkle Index: 1.4 +/- 0.5
[1]; 0.5 µg topical, scale zero to 4, P < 0.05 vs Control
  Wrinkle Index: 1.0 +/- 0.3*
[1]; 2.0 µg topical, scale zero to 4, P < 0.01 vs Control
  Wrinkle Index: 0.8 +/- 0.2**
[1]; 10.0 µg topical, scale zero to 4, P < 0.001 vs Control
  Wrinkle Index: 0.3 +/- 0.1***
[1]; 50.0 µg topical, scale zero to 4, P < 0.001 vs Control
  Wrinkle Index: 0.3 +/- 0.1***
[2]; 0.1 µg topical in 100 µl acetone
  Repair Zone: 0.005 +/- 0.001 mm²
[2]; 0.5 µg topical in 100 µl acetone
  Repair Zone: 0.006 +/- 0.003 mm²
[2]; 2.0 µg topical in 100 µl acetone, P < 0.05 vs Control
  Repair Zone: 0.021 +/- 0.003* mm²
[2]; 10.0 µg topical in 100 µl acetone
  Repair Zone: 0.015 +/- 0.004 mm²
[2]; 50.0 µg topical in 100 µl acetone, P < 0.05 vs Control
  Repair Zone: 0.025 +/- 0.007* mm²

Source: patent EP0358880B1, “Use of retinoids” (F. HOFFMANN-LA ROCHE AG, priority 1988, dated 1990)
